Source: patent publication US20210299079A1, “MONOMETHYL FUMARATE-CARRIER CONJUGATES AND METHODS OF THEIR USE” (Flagship Pioneering Innovations V, Inc., priority 2018, published 2021)

Assays:
Assay type in all cases: cell-based
[1] = system: naïve CD4+ T cells; experiment: Human Regulatory T Cell Differentiation Assay; settings: 6 days; for Cell viability % DMSO: viability dye; for activity at 1 µM: IL-2, 1 μM
Procedure: Peripheral blood mononuclear cells (PBMCs) from whole blood donated by health volunteers were separated by Ficoll-Paque gradient centrifugation and naïve CD4^+ T cells were subsequently isolated using magnet beads (EasySep™ Human Naïve CD4^+ T Cell Isolation Kit, Cambridge, Mass.). For regulatory T cell (Treg) differentiation assay, naïve CD4^+ T cells were cultured (1-10×10^4 cells) in CTS OpTmizer medium for 6 days and stimulated with 5 ng/ml TGF-β, 100 U/ml IL-2, and ImmunoCult™ Human […] T Cell Activator; Stemcell #10990) with/without our Compounds. Cell viability was determined using a viability dye (eBioscience Fixable Viability Dye eFluor 780: ThermoFisher 65-0865-14) at 1:500 dilution. The cells were gated for Treg, defined as Live, CD11c^−, CD14^−, CD19^−, CD8^−, CD4^+, CD3^+, CD25^+, FOXP3^+. Percent (%) Tregs were calculated as percentage of CD4^+, CD25^+, FOXP3^+ cells over total CD4^+ T cells. Statistical analysis was performed with GraphPad Prism Software Using One-Way ANOVA.

[2] = system: IL-8; experiment: Neutrophil Chemokine Production Assay: IL-8; settings: human neutrophils, 12 h
Procedure: (§1) A volume 25 mL of human blood was layered over 15 mL of Histopaque®-1077 and centrifuged at 500 g, R^T, for 30 min with no break applied to the centrifuge. The PBMC band and Histopaque®-1077 layer were removed leaving behind the bottom red layer which was mixed with 40 mL of 1× red blood cell (RBC) lysis buffer (Sigma-Aldrich) was and split into two 50 mL tubes. The volume for both fractions was brought to 50 mL with RBC lysis buffer, mixed by inversion, and then incubated at RT for 10 min. Solutions were centrifuged at 250 g, for 10 min at RT and the supernatant liquids removed. The reddish pellets were re-suspended in 1 mL of RBC lysis buffer and combined. The cell suspension was incubated for 5 min at RT in RBC lysis buffer. After incubation 45 mL of Hanks Balanced Salt Solution with no calcium, magnesium or phenol red (HBSS—) was added, the cell suspension was spun (250 g for 10 min at RT), and supernatant liquids were removed. The white pellet was re-suspended in 1 mL of HBSS—, and cell counts were determined. The neutrophil cell suspension was brought to a concentration of 1.11e6 cells/mL in RPMI complete (Sigma-Aldrich), and 180 μL of cell suspension was transferred to all wells within a sterile 96-well tissue culture treated plate resulting in 2.0×10^5 cells/well. […] After incubation, 10 μL of 2 μg/mL LPS solution in RPMI complete was added to each well except for control wells, which received an additional 10 μL of media. Cells were incubated for 12 h (37° C., 5% CO2), after which plates were centrifuged at 250 g, RT, for 5 min and supernatant liquids were obtained and stored at −80° C. until analyzed via Luminex® Multiplex Assay for various chemokines and cytokines. Three data points were acquired from two different blood donors and averaged.

[3] = system: IL-6; experiment: Cytokine Release from Human PBMCs: IL-6; settings: LPS, 24 hours, Concentration 100 μM
Procedure: (§2) Human donor blood (8 mL) was collected in sodium citrate CPT tubes and centrifuged at 1,600×g for 20 minutes at room temperature. Buffy coat containing PBMCs was collected and transferred to a 50 mL conical tube containing 30 mL of RPMI-1640 medium at room temperature (supplemented with penicillin-streptomycin). PBMCs samples were centrifuged at 400×g for 10 minutes at 10° C. The pelleted PBMCs were washed twice in 10 ml of RPMI-1640 medium (supplemented with penicillin-streptomycin), then resuspended in RPMI-1640 medium (supplemented with penicillin-streptomycin, fetal bovine serum, and L-Glutamine). PBMCs were filtered through a 70 micron mesh to remove any cellular debris. […] PBMCs in a 96-well plate were rested for 30 minutes in a 37° C., 5% CO2 incubator, then subsequently treated with 10 μI of indicated compound. After 2 hours 10 μL of LPS (0111:64) 1 mg/mL was added to test wells. After 24 hours of incubation at 37° C., 5% CO2, 100 μL of cell supernatant was collected and transferred to a 96-well plate (non-tissue treated, flat bottom). The plate was centrifuged at 350×g for 5 minutes at room temperature, and then the clear supernatant transferred to a new 96-well plate (non-tissue treated, flat bottom). The remaining cells were tested for viability using CellTiter-Glo® Luminescent Cell Viability Assay (Promega). The supernatant was analyzed for TNFα, IL-6 and IL-1β (kit […] Systems), using Luminex Immunoassay Technology (MAGPIX System).

[4] = system: MIP-1α; experiment: Neutrophil Chemokine Production Assay: MIP-1α; settings: human neutrophils, 12 h
Procedure: as §1

[5] = system: Caco-2 colonocytes; experiment: Human Caco-2 Barrier Integrity Assay, Study 1; settings: Caco-2, + cytokines (TNFα, IFNγ, IL-1β), 48 hours
Procedure: Caco-2 colonocytes were maintained at 37° C. and 5% CO2 in Dulbecco's Modified Eagle Medium (DMEM) and supplemented with 10% FBS, 1% NEAA, 1% penicillin-streptomycin. At 70-80% confluency, cells were trypsinized and seeded in 0.4 cm^2 transwell collagen I coated membranes with supplemented DMEM in both apical and basolateral compartments. […] After 48 hours, TEER readings were taken again and viability was measured by CellTiter 96® AQueous One Solution Cell Proliferation Assay (Promega).

[6] = system: MIP-1β; experiment: Neutrophil Chemokine Production Assay: MIP-1β; settings: human neutrophils, 12 h
Procedure: as §1

[7] = system: TNFα; experiment: Cytokine Release from Human PBMCs: TNFα; settings: LPS, 24 hours, Concentration 100 μM
Procedure: as §2

[8] = system: IL-1β; experiment: Cytokine Release from Human PBMCs: IL-1β; settings: LPS, 24 hours, Concentration 100 μM
Procedure: as §2

[9] = Homo sapiens, 144 h, TGF-β, read-out: Treg induction % DMSO

O=c1c(O)c(-c2ccc(O)c(O)c2)oc2cc(O)cc(O)c12 [quercetin]
Cell viability % DMSO ([1]; 100 nM): = (90% > <110%: =) | Cell viability % DMSO ([1]; 1 μM): = (90% > <110%: =) | activity at 0.1 µM ([1]; Homo sapiens, 144 h, TGF-β, IL-2, 100 nM, read-out: Treg induction % DMSO): 90 to 110% | activity at 1 µM [1, 9]: 90 to 110% | % IL-8 (Vehicle + LPS = 100%) ([2]; Conc. 0.1 μM): − (− = >90% Vehicle) | % IL-8 (Vehicle + LPS = 100%) ([2]; Conc. 1.0 μM): − (− = >90% Vehicle) | IL6 % DMSO control [3]: + ((+) 50% > <90% DMSO) | % MIP-1α (Vehicle + LPS = 100%) ([4]; Conc. 0.1 μM): − (− = >90% Vehicle) | % MIP-1α (Vehicle + LPS = 100%) ([4]; Conc. 1.0 μM): − (− = >90% Vehicle) | % Change in TEER from DMSO ([5]; 100 nM): − (<125%: −) | % Change in TEER from DMSO ([5]; 1 μM): + (125% > <150%: +) | % MIP-1β (DMSO + LPS = 100%) ([6]; Conc. 0.1 μM): − (− = >90% Vehicle) | % MIP-1β (DMSO + LPS = 100%) ([6]; Conc. 1.0 μM): − (− = >90% Vehicle) | TNFα % of DMSO control [7]: + ((+) 50% > <90% DMSO) | IL1β % DMSO control [8]: + ((+) 50% > <90% DMSO)

Oc1ccc(C=Cc2cc(O)cc(O)c2)cc1 [resveratrol]
Cell viability % DMSO ([1]; 1 μM): − (<90%: −) | Cell viability % DMSO ([1]; 10 μM): − (<90%: −) | activity at 1 µM [1, 9]: 110 to 130% | activity at 10 µM ([1]; Homo sapiens, 144 h, TGF-β, IL-2, 10 μM, read-out: Treg induction % DMSO): 110 to 130% | % IL-8 (Vehicle + LPS = 100%) ([2]; Conc. 10.0 μM): − (− = >90% Vehicle) | IL6 % DMSO control [3]: + ((+) 50% > <90% DMSO) | % MIP-1α (Vehicle + LPS = 100%) ([4]; Conc. 10.0 μM): + (+ = <90% Vehicle) | % Change in TEER from DMSO ([5]; 10 μM): − (<125%: −) | % Change in TEER from DMSO ([5]; 100 μM): +++ (200%>: +++) | % MIP-1β (DMSO + LPS = 100%) ([6]; Conc. 10.0 μM): ++ (++ = <70% Vehicle) | TNFα % of DMSO control [7]: + ((+) 50% > <90% DMSO) | IL1β % DMSO control [8]: = ((=) 90% > <110% DMSO)

CC(=O)O [acetate]
% IL-8 (Vehicle + LPS = 100%) ([2]; Conc. 500.0 μM): − (− = >90% Vehicle) | % IL-8 (Vehicle + LPS = 100%) ([2]; Conc. 1000.0 μM): − (− = >90% Vehicle) | % IL-8 (Vehicle + LPS = 100%) ([2]; Conc. 3000.0 μM): +++ (+++ = <50% Vehicle) | IL6 % DMSO control [3]: = ((=) 90% > <110% DMSO) | % MIP-1α (Vehicle + LPS = 100%) ([4]; Conc. 500.0 μM): + (+ = <90% Vehicle) | % MIP-1α (Vehicle + LPS = 100%) ([4]; Conc. 1000.0 μM): ++ (++ = <70% Vehicle) | % MIP-1α (Vehicle + LPS = 100%) ([4]; Conc. 3000.0 μM): +++ (+++ = <50% Vehicle) | % Change in TEER from DMSO ([5]; 1 mM): − (<125%: −) | % Change in TEER from DMSO ([5]; 3 mM): − (<125%: −) | % MIP-1β (DMSO + LPS = 100%) ([6]; Conc. 500.0 μM): + (+ = <90% Vehicle) | % MIP-1β (DMSO + LPS = 100%) ([6]; Conc. 1000.0 μM): + (+ = <90% Vehicle) | % MIP-1β (DMSO + LPS = 100%) ([6]; Conc. 3000.0 μM): +++ (+++ = <50% Vehicle) | TNFα % of DMSO control [7]: = ((=) 90% > <110% DMSO) | IL1β % DMSO control [8]: = ((=) 90% > <110% DMSO)
